According to patent publication US20110166206A1, “UBIQUILIN REGULATION OF PRESENILIN ENDOPROTEOLYSIS, AND SUPPRESSION OF POLYGLUTAMINE-INDUCED TOXICITY IN CELLS” (UNIVERSITY OF MARYLAND BIOTECHNOLOGY INSTITUTE, priority 2005, published 2011):
Square brackets hold non-standard residues; d marks the D form. Peptide text beside a SMILES is read from it. * marks the point of attachment. Nle = CCCC[C@H](N)C(=O)O; Cbz = O=C(OCc1ccccc1)*

How the values were obtained:
PS1 NTF = test: Proteasome inhibitor treatment of PS1 inducible cells, PS1 NTF immunoblot; format: cell-based; conditions: 16 h treatment
Protocol: (§1) (A) PS1 and PS2 inducible cells were treated with various classes of proteasome inhibitors for 16 hours. Afterwards, cell lysates were collected, separated by SDS-PAGE, and analyzed by immunoblotting. PS1 NTF levels and PS2 NTF levels were reduced by treatment with all of the different inhibitors albeit to varying extents.
(§2) PS2 inducible cells were treated for 16 h with 10 uM clasto-lactacystin β-lactone, N-Acetyl-Leu-Leu-Nle-CHO (ALLN), 50 uM epoxomicin, 40 uM MG132, and […]. Afterwards, lysates were collected and the fragment levels were analyzed by SDS-PAGE and immunoblotting.
(§3) First, to rule out that MG132 inhibits another factor involved in PS cleavage, PS1 and PS2 inducible cells were treated with a series of different known proteasome inhibitors including clasto-lactacystin p-lactone, ALLN, epoxomicin, MG132, and MG262. […] While each inhibitor had varying effects on the extent of reduction, PS1 NTF levels were reduced by an average of 1.3-fold and PS2 NTF levels were reduced by an average of 1.4-fold. At first glance the fold reduction appears modest; however, considering that degradation of the PS fragments by the proteasome has also been blocked and that fragment levels are tightly regulated, the reduction in PS fragment levels appears significant. Furthermore, it was considered unlikely that all […] proteasome inhibitors used here caused nonspecific inhibition of an unknown factor involved in PS endoproteolysis. Instead, it was considered that the most straightforward interpretation of the results is that, in accord with the mode of action the drugs, they all inhibit the proteasome, which is involved in PS endoproteolysis.

PS2 NTF [1] = test: Proteasome inhibitor treatment of PS2 inducible cells, PS2 NTF immunoblot; format: cell-based, human; conditions: 16 h treatment
Protocol: as §1, §2, §3

PS2 NTF [2] = test: Proteasome inhibitor wash-out time course with CHX in PS2 stable cells; format: cell-based, human
Protocol: (B) PS2 inducible cells were treated continuously with MG132 or MG262 or the drugs were washed from half the cultures after 7 hours of incubation with the drugs. Immediately after washing, CHX was added to all of the cultures to inhibit protein synthesis. Lysates were collected at two hour time points thereafter and the PS fragment levels were analyzed by SDS-PAGE and subsequent immunoblotting. […] Please note that because PS2 expression was not been induced with PonA, the FL protein is not detectable. The filter was reprobed with anti-p27 antibody to monitor recovery of proteasome activity. p27 has a half-life of two hours; therefore once proteasome inhibition is relieved the level of p27 begins to decline (third panel, right), whereas under constant proteasome inhibition its levels remain steady (third panel, left), serving as an important control.
(C) Densitometric analysis was used to quantify the extent of increase in PS2 NTF levels in conditions of constant proteasome inhibition and upon removal of proteasome inhibition. At time=0 the NTF levels in the washed sample is equal to that of MG132 treated sample; however, NTF levels quickly begin to […], whereas in the MG132 treated samples PS2 NTF levels stay steady.
PS2 inducible cells were grown in two sets on […]. Both sets were treated with MG132 or MG262 (also called Z-Leu-Leu-Leu-B(OH)2, Boston Biocem). 7 h later, the drugs were washed off one set by rinsing twice with warm 1×PBS and replacing with fresh DMEM supplemented with 10% FBS, allowing the proteasomes to recover. Also at that point, cyclohexamide (final cont. […]) was added to all dishes. Lysates were collected at two hour time points and the fragment levels were analyzed by SDS-PAGE and subsequent immunoblotting.
To directly address whether the proteasome is responsible for endoproteolysis of PS2, another time course experiment utilizing proteasome inhibitors was devised. […]

PS1 and PS2 NTF and CTF = test: MG132 treatment of UBQLN-transfected PS1 and PS2 stable cell lines, fragment immunoblot; format: cell-based; conditions: proteasome inhibitor treatment
Protocol: FIG. 3. […] (A) PS1 cells lines that were either not induced (lanes 1 and 3) or induced with PonA (lanes 2 and 4) and either left untransfected (lanes 1 and 2) or transfected with UBQLN1 expression plasmids (lanes 3 and 4) were treated for 7 h with MG132 after which protein lysates were collected and analyzed by immunoblotting. […] For clarification, if UBQLN did increase the turnover rate then by blocking degradation, turnover would be stopped and PS fragment levels would be similar, or increase, relative to that of untransfected cells. […] Densitometric analysis was used to quantify the extent of reduction. Each experiment was repeated more than three times and similar trends were observed.
(B) Same experiment and results as described in (A) except that PS2 inducible cell lines were used to examine PS2 NTF and CTF levels. […] UBQLN exerts greater effects on PS2 probably because it interacts more strongly with PS2, see [43].
HeLa and HEK293 cells were grown in DMEM supplemented with 10% FBS. PS1 and S2 inducible cell lines were generated by transfection of the pERV-expressing HEK293 cell line (Stratgene, IaIolla, Calif.) with FL human PS2 cDNA under the control of ponasteroneA (PonA)-inducible cassette in plasmid pEGSH (Stratagene). Stable integration of the pEGSH plasmid was achieved by selection for hygromycin resistance. […]

endogenous PS1 NTF = test: UBQLN overexpression in wild-type HEK293 cells, endogenous PS1 NTF immunoblot; format: cell-based; conditions: normal HEK293 cells
Protocol: (C) Endogenous PS fragment levels were analyzed in HEK293 cells that were transfected with increasing amounts of UBQLN1 or UBQLN2 expression plasmids. Equivalent amounts of protein lysates were separated by 10% SDS-PAGE and immunoblotted with anti-PS1 NTF antibody. The filter was then reprobed with anti-ubiquilin antibody to ensure overexpression of UBQLN and with an anti-actin antibody to ensure equal protein loading. Overexpression of UBQLN decreases PS1 NTF levels and the extent of reduction was quantified again by densitometric analysis. Graph is quantification of untransfected and […] UBQLN cDNA plasmid transfected lanes.
Preparation of protein lysates, SDS-PAGE and immunoblotting of proteins were described previously. Primary antibodies used were rabbit anti-PS2 loop and rabbit anti-PS2 NH,-terminus, both raised to GST-PS2 fusion proteins; rabbit anti-ubiquilin [43] which reacts with UBQLN1 and UBQLN2 polypeptides; rat anti-PS1 NH2,-terminus (Chemicon International, Temecula, Calif.); rabbit anti-PS1 loop raised to GST-PS1 fusion proteins; goat anti-p27 and goat anti-actin (Santa Cruz Biotechnology, Santa Cruz, Calif.); mouse monoclonal anti-tubulin (Sigma-Aldrich, St. Louis, Mo.); rabbit anti-nicastrin (Abeam, Cambridge, Mass.), rabbit anti-Pen-2 (Zymed, San Francisco, Calif.); and rabbit anti-Aph-la (Covance, Berkeley, Calif.). […]

Compound	PS1 NTF levels (PS1 NTF)	PS2 NTF levels (PS2 NTF [1])	rise in PS2 NTF levels after inhibitor washed out (PS2 NTF [2]; 12 hours after wash-out, CHX added) [fold]	PS2 NTF levels under continuous inhibitor (PS2 NTF [2]; inhibitor present for the continuous duration)	PS fragment levels, MG132 treated vs MG132 untreated cells (PS1 and PS2 NTF and CTF)	PS2 fragments after removal of inhibitor (PS2 NTF [2]; proteasomes recover activity)	reduction of endogenous PS1 NTF levels (endogenous PS1 NTF)
CCCC[C@@H](C=O)NC(=O)[C@H](CC(C)C)NC(=O)[C@H](CC(C)C)NC(C)=O [ALLN, N-Acetyl-Leu-Leu-Nle-CHO] (Ac-Leu-Leu-[Nle]-aldehyde)	reduced	reduced	–	–	–	–	–
CC(C)C[C@@H](C=O)NC(=O)[C@H](CC(C)C)NC(=O)[C@H](CC(C)C)NC(=O)OCc1ccccc1 [MG132] (Cbz-Leu-Leu-Leu-aldehyde)	reduced	reduced	1.8	remained relatively constant	reduced PS fragment levels	–	–
CC(C)C[C@H](NC(=O)[C@H](CC(C)C)NC(=O)[C@H](CC(C)C)NC(=O)OCc1ccccc1)B(O)O [MG262, Z-Leu-Leu-Leu-B(OH)2]	reduced	reduced	–	–	–	notable increase in PS2 fragments	–
CC(C)[C@H](O)[C@@]12NC(=O)[C@H](C)[C@@H]1OC2=O [clasto-lactacystin p-lactone, clasto-lactacystin β-lactone]	reduced	reduced	–	–	–	–	–
CC[C@H](C)[C@H](NC(=O)[C@H]([C@@H](C)CC)N(C)C(C)=O)C(=O)N[C@H](C(=O)N[C@@H](CC(C)C)C(=O)[C@@]1(C)CO1)[C@@H](C)O [epoxomicin]	reduced	reduced	–	–	–	–	–
UBQLN2: ubiquilin-2, 72% identical to UBQLN1, overexpressed from an expression plasmid	–	–	–	–	–	–	approximately 1.7 fold
